Ten compounds from ChEMBL document CHEMBL1126444, “Synthesis and structure-activity relationships of heterocyclic analogues of the functional M1 selective muscarinic agonist hexyloxy-TZTP” (Bioorg Med Chem Lett, 1992) can be followed below.

Some results are limits rather than exact numbers.

For assay [1], the target named is Muscarinic acetylcholine receptor. Description: Displacement of [3H]-OXO-M (oxotremorine-M) from the central muscarinic receptor sites of the rat brain membranes. The class given is cell membranes, Membrane.
The species entered for assay [2] is Oryctolagus cuniculus. In words: Percent maximum inhibition of the twitch response in the electrically stimulated rabbit vas deferens was determined. It is filed as functional.
For assay [3], the target named is T1, Muscarinic acetylcholine receptor M1 (Rattus norvegicus, UniProt P08482).
T1 sequence (P08482 whole entry): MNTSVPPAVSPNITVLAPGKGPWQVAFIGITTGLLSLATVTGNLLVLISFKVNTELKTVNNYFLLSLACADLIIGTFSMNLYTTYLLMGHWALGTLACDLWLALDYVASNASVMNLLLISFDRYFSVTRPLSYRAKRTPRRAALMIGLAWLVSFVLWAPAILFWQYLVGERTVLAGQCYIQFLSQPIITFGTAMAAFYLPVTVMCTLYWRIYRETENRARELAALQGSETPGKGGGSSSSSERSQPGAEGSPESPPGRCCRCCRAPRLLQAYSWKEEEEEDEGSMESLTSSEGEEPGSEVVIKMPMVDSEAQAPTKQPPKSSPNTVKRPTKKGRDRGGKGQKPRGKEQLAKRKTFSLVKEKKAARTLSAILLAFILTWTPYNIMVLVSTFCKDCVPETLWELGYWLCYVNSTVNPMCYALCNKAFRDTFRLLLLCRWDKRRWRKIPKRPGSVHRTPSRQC
Description: Displacement of [3H]-Pz (pirenzepine) from the muscarinic receptor M1 of the rat hippocampus. It is filed as tissue-based.

Assay [4] is filed under the species Oryctolagus cuniculus. In words: Compound was evaluated for the inhibition of the twitch response in the electrically stimulated rabbit vas deferens. The class given is functional.

As usually defined, the IC50 is the midpoint of a concentration-inhibition curve. Low readings indicate inhibition by little substance, high ones a need for much substance. In assay [1], `CCCCOc1nsnc1C1=CCCN(C)C1` gave a half-maximal inhibitory concentration (IC50) of 1.4 nM.

A word on the Inhibition: it is the share of the control response that was lost under treatment. A low value points to a response near the control. `C[N+](C)(C)CC#CCOC(=O)Nc1cccc(Cl)c1.[Cl-]` had a half-maximal inhibitory concentration (IC50) in assay [1] of 355 nM. The Inhibition in the assay filed under Oryctolagus cuniculus [2] came to 91%.

The compound `CCCCOc1nonc1C1=CCCN(C)C1` showed a concentration for half-maximal inhibition (IC50) in assay [1] of 24 nM. The Inhibition in the assay listed under Oryctolagus cuniculus [2] is listed as 12%.

Regarding `CCCCOc1cscc1C1=CCCN(C)C1`, the half-inhibitory concentration (IC50) in assay [1] is 477 nM; in assay [3], 369 nM. The Inhibition in the assay filed under Oryctolagus cuniculus [2] worked out at 18%.

Take `CCCCCCOc1cscc1C1=CCCN(C)C1`: the IC50 in assay [1] was more than 900 nM; in assay [3], 663 nM; in the assay filed under Oryctolagus cuniculus [4], 39000 nM. The Inhibition in the assay listed under Oryctolagus cuniculus [2] came to 93%.

`CCCCOc1nscc1C1=CCCN(C)C1`: the results for the concentration for half-maximal inhibition (IC50) in assay [1] and in assay [3] were 544 nM and 565 nM, respectively. In the assay filed under Oryctolagus cuniculus [2], this compound gave an Inhibition of 18%.

In the case of `CCCCCCOc1nscc1C1=CCCN(C)C1`, the IC50 in assay [1] was more than 900 nM; in assay [3], 715 nM. The compound also came in with an Inhibition in the assay filed under Oryctolagus cuniculus [2] of 43%.

In turn, `CCCCOc1noc(C)c1C1=CCCN(C)C1` gave a half-inhibitory concentration (IC50) in assay [1] of 759 nM.

In the case of `CCCCCCOc1nonc1C1=CCCN(C)C1`, the IC50 in assay [1] turned out to be 70 nM. This compound showed an Inhibition in the assay listed under Oryctolagus cuniculus [2] of 47%.

`CCCCCCOc1nsnc1C1=CCCN(C)C1` [XANOMELINE] yielded an Inhibition in the assay listed under Oryctolagus cuniculus [2] of 88%.
